Experiments:
Transthyretin [1] = molecular target: T1, Transthyretin (Homo sapiens, UniProt P02766); test: Binding affinity to TTR (unknown origin) by isothermal titration calorimetric analysis
Transthyretin [2] = molecular target: T1, Transthyretin; test: Binding affinity to TTR in human plasma assessed as protein stabilization preincubated for 1 hr followed by urea-mediated denaturation by Western blot analysis
[3] = Half life in plasma (unknown origin); type: ADME, cell-free

Kd (Transthyretin [1])	IC50 (Transthyretin [2]; read-out: IC50)	half-life [3]	SMILES	IC50 (Transthyretin [2])
1 µM	140 µM	–	O=C(O)Cc1ccccc1Nc1c(Cl)cccc1Cl [DICLOFENAC]	–
1.2 µM	170 µM	–	O=C(O)COC(=O)Cc1ccccc1Nc1c(Cl)cccc1Cl [ACECLOFENAC]	–
0.1 µM	180 µM	1.5 h	Cc1ccc(C)c(OCCCC(C)(C)C(=O)O)c1 [GEMFIBROZIL]	–
0.15 µM	40 µM	–	Cc1c(Cl)cccc1Nc1ccccc1C(=O)O [TOLFENAMIC ACID]	–
0.48 µM	50 µM	–	Cc1ccc(Cl)c(Nc2ccccc2C(=O)O)c1Cl [MECLOFENAMIC ACID]	–

SMILES	Kd (Transthyretin [1])	IC50 (Transthyretin [2]; read-out: IC50)	half-life [3]	IC50 (Transthyretin [2])
O=c1cc(-c2ccc(O)cc2)oc2cc(O)cc(O)c12 [APIGENIN]	0.25 µM	–	–	18 µM
O=c1cc(-c2ccc(O)c(O)c2)oc2cc(O)cc(O)c12 [LUTEOLIN]	0.07 µM	7 µM	–	–

Source: ChEMBL document CHEMBL3600283, “Enthalpic Forces Correlate with the Selectivity of Transthyretin-Stabilizing Ligands in Human Plasma” (J Med Chem, 2015)
